Non-standard residues stand in square brackets, D forms with d. Orn = NCCC[C@H](N)C(=O)O
Tested on: HDL in human plasma
Test: pre-beta HDL ELISA assay: remodeling HDL in human plasma in vitro
Format: biochemical
Details: pre-beta HDL ELISA
Description: First, various cyclic peptides, including the majority of compounds shown in FIG. 2, were assessed for activities for remodeling HDL in human plasma in vitro. Unlike western blot which was used to generate data shown in FIG. 2, here a pre-beta HDL ELISA assay was used to measure pre-beta HDL levels. Results from the assay are shown in Table 1, which lists the peptides in the order of their activities in remodeling HDL.

Row | Substance | Pre-beta HDL generated (normalized level)
1 | 2 (cyclo([dW]L[dW]K[dD]Q[dE]K); SMILES CC(C)C[C@@H]1NC(=O)[C@@H](Cc2c[nH]c3ccccc23)NC(=O)[C@H](CCCCN)NC(=O)[C@@H](CCC(=O)O)NC(=O)[C@H](CCC(N)=O)NC(=O)[C@@H](CC(=O)O)NC(=O)[C@H](CCCCN)NC(=O)[C@@H](Cc2c[nH]c3ccccc23)NC1=O) [compound 2] | 0.10
2 | 5 (cyclo([dF]W[dW]Y[dQ]H[dH]Q); SMILES NC(=O)CC[C@@H]1NC(=O)[C@@H](Cc2c[nH]cn2)NC(=O)[C@H](Cc2c[nH]cn2)NC(=O)[C@@H](CCC(N)=O)NC(=O)[C@H](Cc2ccc(O)cc2)NC(=O)[C@@H](Cc2c[nH]c3ccccc23)NC(=O)[C@H](Cc2c[nH]c3ccccc23)NC(=O)[C@@H](Cc2ccccc2)NC1=O) [compound 5] | 1.29
3 | 6 (cyclo(L[dW]L[dW]L[dR]K[dE]); SMILES CC(C)C[C@@H]1NC(=O)[C@@H](Cc2c[nH]c3ccccc23)NC(=O)[C@H](CC(C)C)NC(=O)[C@@H](Cc2c[nH]c3ccccc23)NC(=O)[C@H](CC(C)C)NC(=O)[C@@H](CCC(=O)O)NC(=O)[C@H](CCCCN)NC(=O)[C@@H](CCCNC(=N)N)NC1=O) [compound 6] | 0.36
4 | 8 (cyclo([dW]L[dW]K[dD]N[dD]K); SMILES CC(C)C[C@@H]1NC(=O)[C@@H](Cc2c[nH]c3ccccc23)NC(=O)[C@H](CCCCN)NC(=O)[C@@H](CC(=O)O)NC(=O)[C@H](CC(N)=O)NC(=O)[C@@H](CC(=O)O)NC(=O)[C@H](CCCCN)NC(=O)[C@@H](Cc2c[nH]c3ccccc23)NC1=O) [compound 8] | 0.26
5 | 9 (cyclo([dW]L[dW]R[dD]N[dD]K); SMILES CC(C)C[C@@H]1NC(=O)[C@@H](Cc2c[nH]c3ccccc23)NC(=O)[C@H](CCCCN)NC(=O)[C@@H](CC(=O)O)NC(=O)[C@H](CC(N)=O)NC(=O)[C@@H](CC(=O)O)NC(=O)[C@H](CCCNC(=N)N)NC(=O)[C@@H](Cc2c[nH]c3ccccc23)NC1=O) [compound 9] | 0.47
6 | 10 (cyclo([dW]L[dW]K[dD]Q[dD]K); SMILES CC(C)C[C@@H]1NC(=O)[C@@H](Cc2c[nH]c3ccccc23)NC(=O)[C@H](CCCCN)NC(=O)[C@@H](CC(=O)O)NC(=O)[C@H](CCC(N)=O)NC(=O)[C@@H](CC(=O)O)NC(=O)[C@H](CCCCN)NC(=O)[C@@H](Cc2c[nH]c3ccccc23)NC1=O) [compound 10] | 0.12
7 | 12 (cyclo([dW]L[dW]H[dE]N[dE]K); SMILES CC(C)C[C@@H]1NC(=O)[C@@H](Cc2c[nH]c3ccccc23)NC(=O)[C@H](CCCCN)NC(=O)[C@@H](CCC(=O)O)NC(=O)[C@H](CC(N)=O)NC(=O)[C@@H](CCC(=O)O)NC(=O)[C@H](Cc2c[nH]cn2)NC(=O)[C@@H](Cc2c[nH]c3ccccc23)NC1=O) [compound 12] | 0.07
8 | 13 (cyclo([dW]L[dW][Orn][dE]Q[dE][Orn]); SMILES CC(C)C[C@@H]1NC(=O)[C@@H](Cc2c[nH]c3ccccc23)NC(=O)[C@H](CCCN)NC(=O)[C@@H](CCC(=O)O)NC(=O)[C@H](CCC(N)=O)NC(=O)[C@@H](CCC(=O)O)NC(=O)[C@H](CCCN)NC(=O)[C@@H](Cc2c[nH]c3ccccc23)NC1=O) [compound 13] | 0.46
9 | 15 (cyclo(Y[dL]W[dY]K[dH]A[dE]); SMILES CC(C)C[C@H]1NC(=O)[C@H](Cc2ccc(O)cc2)NC(=O)[C@@H](CCC(=O)O)NC(=O)[C@H](C)NC(=O)[C@@H](Cc2c[nH]cn2)NC(=O)[C@H](CCCCN)NC(=O)[C@@H](Cc2ccc(O)cc2)NC(=O)[C@H](Cc2c[nH]c3ccccc23)NC1=O) [compound 15] | 0.51
10 | 16 (cyclo(Y[dW]E[dL]Y[dS]K[dQ]); also: 2nd residue stated as DL-residue) [compound 16] | 0.09
11 | 17 (cyclo(Y[dW]D[dS]K[dH]); SMILES NCCCC[C@@H]1NC(=O)[C@@H](CO)NC(=O)[C@H](CC(=O)O)NC(=O)[C@@H](Cc2c[nH]c3ccccc23)NC(=O)[C@H](Cc2ccc(O)cc2)NC(=O)[C@@H](Cc2c[nH]cn2)NC1=O) [compound 17] | 0.08
